These results are taken from US9637472B2, “Substituted 6,5-fused bicyclic heteroaryl compounds” (Epizyme, Inc., priority 2011, dated 2017).

The experiment addresses EZH2 (Homo sapiens (Human), UniProt Q15910). The experiment is described as follows: PRC2 enzyme assay on peptide substrates. The format is biochemical. The settings on record: PRC2 enzyme assays on peptide substrates; 4 nM enzyme, 30 min preincubation at 25° C.; read-out: EZH2 IC50.

One may read the IC50 as the concentration that inhibits the measured activity by half.

Chain of EZH2 (Q15910 other isoform, or with tags, fused parts or gaps): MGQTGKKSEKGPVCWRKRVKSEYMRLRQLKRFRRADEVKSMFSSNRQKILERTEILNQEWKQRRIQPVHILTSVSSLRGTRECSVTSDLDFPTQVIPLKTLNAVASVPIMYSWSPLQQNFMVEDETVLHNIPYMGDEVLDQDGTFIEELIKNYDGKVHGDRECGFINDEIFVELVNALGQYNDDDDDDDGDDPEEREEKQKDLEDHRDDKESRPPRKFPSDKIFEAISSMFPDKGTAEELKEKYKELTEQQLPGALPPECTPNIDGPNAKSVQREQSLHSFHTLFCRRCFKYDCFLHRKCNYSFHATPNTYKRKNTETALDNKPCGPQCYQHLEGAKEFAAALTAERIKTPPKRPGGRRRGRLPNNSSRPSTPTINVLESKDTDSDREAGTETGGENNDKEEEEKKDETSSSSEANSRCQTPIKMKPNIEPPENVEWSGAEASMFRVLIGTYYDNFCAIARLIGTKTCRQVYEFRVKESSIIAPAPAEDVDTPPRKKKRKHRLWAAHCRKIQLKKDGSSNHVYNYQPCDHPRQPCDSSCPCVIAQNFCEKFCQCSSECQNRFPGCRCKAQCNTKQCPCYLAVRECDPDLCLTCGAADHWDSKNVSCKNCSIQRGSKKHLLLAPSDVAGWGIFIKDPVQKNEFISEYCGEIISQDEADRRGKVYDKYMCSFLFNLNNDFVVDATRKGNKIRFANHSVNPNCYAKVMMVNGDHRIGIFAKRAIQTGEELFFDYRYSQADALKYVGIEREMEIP
Chain of EZH2 (O75530 whole entry partner): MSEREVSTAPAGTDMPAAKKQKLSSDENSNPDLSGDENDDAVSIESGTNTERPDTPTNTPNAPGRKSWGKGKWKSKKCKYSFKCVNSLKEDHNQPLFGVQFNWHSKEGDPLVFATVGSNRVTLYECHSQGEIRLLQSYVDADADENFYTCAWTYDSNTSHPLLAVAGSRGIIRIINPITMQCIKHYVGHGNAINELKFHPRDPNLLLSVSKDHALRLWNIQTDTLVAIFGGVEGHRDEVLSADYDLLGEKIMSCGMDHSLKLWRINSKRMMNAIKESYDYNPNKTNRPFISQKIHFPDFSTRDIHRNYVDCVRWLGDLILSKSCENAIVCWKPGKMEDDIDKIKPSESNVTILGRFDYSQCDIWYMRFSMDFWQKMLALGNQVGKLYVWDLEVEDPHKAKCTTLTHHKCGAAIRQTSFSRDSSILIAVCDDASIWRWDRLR
Chain of EZH2 (Q15022 whole entry partner): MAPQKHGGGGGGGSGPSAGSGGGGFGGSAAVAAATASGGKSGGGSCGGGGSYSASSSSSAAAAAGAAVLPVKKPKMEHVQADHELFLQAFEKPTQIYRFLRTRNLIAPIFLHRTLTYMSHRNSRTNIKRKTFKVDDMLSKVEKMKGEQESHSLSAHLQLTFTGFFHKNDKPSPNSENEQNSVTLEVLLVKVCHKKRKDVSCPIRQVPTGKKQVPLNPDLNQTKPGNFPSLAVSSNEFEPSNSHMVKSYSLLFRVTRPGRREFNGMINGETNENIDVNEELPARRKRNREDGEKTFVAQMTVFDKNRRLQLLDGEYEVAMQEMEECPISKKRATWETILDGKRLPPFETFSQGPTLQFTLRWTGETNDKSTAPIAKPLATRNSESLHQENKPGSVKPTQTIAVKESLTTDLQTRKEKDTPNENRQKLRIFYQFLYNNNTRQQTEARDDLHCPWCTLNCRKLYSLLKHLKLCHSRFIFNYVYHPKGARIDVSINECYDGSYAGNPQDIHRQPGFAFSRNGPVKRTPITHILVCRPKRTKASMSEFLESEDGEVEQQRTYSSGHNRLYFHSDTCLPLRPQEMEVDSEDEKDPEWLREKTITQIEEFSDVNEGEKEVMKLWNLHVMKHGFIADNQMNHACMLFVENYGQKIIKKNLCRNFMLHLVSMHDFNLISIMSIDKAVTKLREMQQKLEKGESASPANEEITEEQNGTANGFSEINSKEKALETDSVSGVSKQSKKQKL
Chain of EZH2 (Q09028 whole entry partner): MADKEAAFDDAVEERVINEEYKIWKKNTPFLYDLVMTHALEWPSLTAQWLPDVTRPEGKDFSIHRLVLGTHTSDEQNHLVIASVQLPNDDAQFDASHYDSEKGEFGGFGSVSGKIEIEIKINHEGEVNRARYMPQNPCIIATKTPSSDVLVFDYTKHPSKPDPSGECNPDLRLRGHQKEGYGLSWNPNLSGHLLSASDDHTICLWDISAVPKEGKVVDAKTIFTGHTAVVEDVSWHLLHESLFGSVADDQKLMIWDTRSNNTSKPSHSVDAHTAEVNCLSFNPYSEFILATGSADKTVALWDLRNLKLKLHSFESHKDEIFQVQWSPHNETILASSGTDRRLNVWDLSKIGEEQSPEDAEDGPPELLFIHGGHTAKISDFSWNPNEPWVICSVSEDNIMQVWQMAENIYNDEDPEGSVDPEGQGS

As for `Cc1cc(C)c(CNC(=O)c2cc(-c3ccc(CN4CCOCC4)cc3Cl)cc3c2cnn3C2CCCC2)c(=O)[nH]1` [Compound C-32], the IC50 is less than 300 nM.

For the molecule `Cc1cc(C)c(CNC(=O)c2cc(-c3cnn(CCN4CCOCC4)c3)cc3c2cnn3C2CCCC2)c(=O)[nH]1` [Compound C-33], the IC50 was less than 300 nM.

Consider `Cc1cc(C)c(CNC(=O)c2cc(-c3cnn(CCN4CCOCC4)c3)cc3c2cnn3C2CCN(C(=O)C(C)(C)C)CC2)c(=O)[nH]1` [Compound C-34], for which the IC50 was less than 300 nM.

On to `Cc1cc(C)c(CNC(=O)c2cc(-c3ccc(OCCCN(C)C)cc3)cc3c2cnn3C2CCCC2)c(=O)[nH]1` [Compound C-35], for which the IC50 is less than 300 nM.

For `Cc1cc(C)c(CNC(=O)c2cc(C3=CC(C)(C)NC(C)(C)C3)cc3c2cnn3C2CCCC2)c(=O)[nH]1` [Compound D-2, 1-cyclopentyl-N-((4,6-dimethyl-2-oxo-1,2-dihydropyridin-3-yl)methyl)-6-(2,2,6,6-tetramethyl-1,2,3,6-tetrahydropyridin-4-yl)-1H-indazole-4-carboxamide], the IC50 is less than 300 nM.

For the molecule `Cc1cc(C)c(CNC(=O)c2cc(C3CC(C)(C)NC(C)(C)C3)cc3c2cnn3C2CCCC2)c(=O)[nH]1` [Compound D-3, 1-cyclopentyl-N-((4,6-dimethyl-2-oxo-1,2-dihydropyridin-3-yl)methyl)-6-(2,2,6,6-tetramethylpiperidin-4-yl)-1H-indazole-4-carboxamide], the IC50 is less than 300 nM.

Turning to `CC(=O)N1CC=C(c2cc(C(=O)NCc3c(C)cc(C)[nH]c3=O)c3cnn(C4CCCC4)c3c2)CC1` [Compound D-4, 6-(1-acetyl-1,2,3,6-tetrahydropyridin-4-yl)-1-cyclopentyl-N-((4,6-dimethyl-2-oxo-1,2-dihydropyridin-3-yl)methyl)-1H-indazole-4-carboxamide], the IC50 was less than 300 nM.

Consider `Cc1cc(C)c(CNC(=O)c2cc(C3=CCN(C(=O)C4CCN(C)CC4)CC3)cc3c2cnn3C2CCCC2)c(=O)[nH]1` [Compound D-5, 1-cyclopentyl-N-((4,6-dimethyl-2-oxo-1,2-dihydropyridin-3-yl)methyl)-6-(1-(1-methylpiperidine-4-carbonyl)-1,2,3,6-tetrahydropyridin-4-yl)-1H-indazole-4-carboxamide], for which the IC50 was less than 300 nM.

As for `Cc1cc(C)c(CNC(=O)c2cc(CN3CCN(C)CC3)cc3c2cnn3C2CCCC2)c(=O)[nH]1` [Compound D-7], the IC50 was less than 300 nM.

Turning to `Cc1cc(C)c(CNC(=O)c2cc(CO)cc3c2cnn3C2CCCC2)c(=O)[nH]1` [Compound D-8, 1-cyclopentyl-N-((4,6-dimethyl-2-oxo-1,2-dihydropyridin-3-yl)methyl)-6-(hydroxymethyl)-1H-indazole-4-carboxamide], the IC50 was in the range of 300 to 1000 nM.

Consider `Cc1cc(C)c(CNC(=O)c2cc(Cl)cc3c2cnn3C2CCCC2)c(=O)[nH]1` [Compound D-10, 6-chloro-1-cyclopentyl-N-((4,6-dimethyl-2-oxo-1,2-dihydropyridin-3-yl)methyl)-1H-indazole-4-carboxamide], for which the IC50 was less than 300 nM.

Regarding `Cc1cc(C)c(CNC(=O)c2cc(C(F)(F)F)cc3c2cnn3C2CCCC2)c(=O)[nH]1` [Compound D-11, 1-cyclopentyl-N-((4,6-dimethyl-2-oxo-1,2-dihydropyridin-3-yl)methyl)-6-(trifluoromethyl)-1H-indazole-4-carboxamide], the IC50 was 300 to 1000 nM.

For `Cc1cc(C)c(CNC(=O)c2cc(Br)cc3c2cnn3C2CCN(C(=O)OC(C)(C)C)CC2)c(=O)[nH]1` [Compound D-12, tert-butyl 4-(6-bromo-4-(((4,6-dimethyl-2-oxo-1,2-dihydropyridin-3-yl)methyl)carbamoyl)-1H-indazol-1-yl)piperidine-1-carboxylate], the IC50 is less than 300 nM.

As to `Cc1cc(C)c(CNC(=O)c2cc(Br)cc3c2cnn3C2CCN(C(=O)C(C)(C)C)CC2)c(=O)[nH]1` [Compound D-13], the IC50 was less than 300 nM.
